Experimental findings from paper PMC3675820 (Molecular & Cellular Proteomics : MCP, 2013) are described below.

What all share (details): 500 μM ATPγS vs none; normal (aerated) culture lysate; competitive
Assay [1] deals with Phosphoglycerate kinase, Pgk (Mycobacterium tuberculosis, UniProt P9WID1).
The target of the next assay is Universal stress protein (Mycobacterium tuberculosis, UniProt P9WLB5).
The target in assay [2] is Polyphosphate kinase, Ppk (Mycobacterium tuberculosis, UniProt P9WHV9).
Polyphosphate kinase, Ppk, sequence (P9WHV9 whole entry): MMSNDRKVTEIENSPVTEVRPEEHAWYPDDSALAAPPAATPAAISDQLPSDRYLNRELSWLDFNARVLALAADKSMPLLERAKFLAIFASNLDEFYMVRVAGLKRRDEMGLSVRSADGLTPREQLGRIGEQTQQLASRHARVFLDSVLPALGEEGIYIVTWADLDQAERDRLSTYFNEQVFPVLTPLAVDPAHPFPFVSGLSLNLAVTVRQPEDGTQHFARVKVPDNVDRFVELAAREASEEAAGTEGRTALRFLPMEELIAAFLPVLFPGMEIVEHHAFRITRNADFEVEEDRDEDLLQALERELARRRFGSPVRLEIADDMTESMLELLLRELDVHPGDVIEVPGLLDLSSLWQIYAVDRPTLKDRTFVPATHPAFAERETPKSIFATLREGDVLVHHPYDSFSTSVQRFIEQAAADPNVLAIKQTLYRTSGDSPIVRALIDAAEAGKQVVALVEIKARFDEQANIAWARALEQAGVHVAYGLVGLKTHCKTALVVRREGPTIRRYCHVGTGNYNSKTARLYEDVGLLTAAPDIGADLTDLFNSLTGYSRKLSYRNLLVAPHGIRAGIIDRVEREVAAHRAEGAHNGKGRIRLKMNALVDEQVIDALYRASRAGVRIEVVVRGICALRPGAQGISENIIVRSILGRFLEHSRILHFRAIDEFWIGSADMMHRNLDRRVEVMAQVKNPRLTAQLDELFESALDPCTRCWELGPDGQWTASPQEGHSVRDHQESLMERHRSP
The target of assay [3] is ATP-dependent protease ATP-binding subunit, ClpC1 (Mycobacterium tuberculosis, UniProt P9WPC9).
ATP-dependent protease ATP-binding subunit, ClpC1, sequence (P9WPC9 whole entry): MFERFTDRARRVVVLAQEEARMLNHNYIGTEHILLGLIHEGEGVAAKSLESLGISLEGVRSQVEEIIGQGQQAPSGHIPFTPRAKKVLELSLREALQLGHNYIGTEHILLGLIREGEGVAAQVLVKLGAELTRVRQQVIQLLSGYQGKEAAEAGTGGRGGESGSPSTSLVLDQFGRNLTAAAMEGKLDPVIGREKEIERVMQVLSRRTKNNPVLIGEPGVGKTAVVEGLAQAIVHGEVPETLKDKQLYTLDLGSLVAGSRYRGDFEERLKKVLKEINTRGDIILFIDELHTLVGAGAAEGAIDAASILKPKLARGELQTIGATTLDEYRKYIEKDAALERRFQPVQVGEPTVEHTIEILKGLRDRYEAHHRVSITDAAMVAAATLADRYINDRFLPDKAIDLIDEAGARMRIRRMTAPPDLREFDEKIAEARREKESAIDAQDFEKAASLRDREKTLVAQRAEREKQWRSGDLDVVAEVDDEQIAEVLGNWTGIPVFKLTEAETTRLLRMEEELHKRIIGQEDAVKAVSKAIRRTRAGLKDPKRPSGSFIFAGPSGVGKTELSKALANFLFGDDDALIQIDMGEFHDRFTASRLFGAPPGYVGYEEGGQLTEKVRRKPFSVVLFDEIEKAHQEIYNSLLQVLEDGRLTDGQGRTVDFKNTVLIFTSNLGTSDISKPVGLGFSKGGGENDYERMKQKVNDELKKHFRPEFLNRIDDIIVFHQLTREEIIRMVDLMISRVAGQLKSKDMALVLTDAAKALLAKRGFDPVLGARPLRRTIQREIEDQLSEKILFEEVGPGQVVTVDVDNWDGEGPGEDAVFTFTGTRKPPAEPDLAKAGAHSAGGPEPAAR
Another assay concerns the target Adenylate kinase, Adk (Mycobacterium tuberculosis, UniProt P9WKF5).

Universal stress protein, sequence (P9WLB5 whole entry): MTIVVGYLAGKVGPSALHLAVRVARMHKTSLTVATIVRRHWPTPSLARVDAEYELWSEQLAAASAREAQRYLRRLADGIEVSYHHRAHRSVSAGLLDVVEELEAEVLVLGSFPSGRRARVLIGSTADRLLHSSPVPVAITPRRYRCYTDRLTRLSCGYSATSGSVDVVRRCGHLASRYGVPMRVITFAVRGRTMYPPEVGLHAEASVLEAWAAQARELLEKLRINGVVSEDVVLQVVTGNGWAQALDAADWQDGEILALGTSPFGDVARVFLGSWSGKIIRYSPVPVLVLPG
Adenylate kinase, Adk, sequence (P9WKF5 whole entry): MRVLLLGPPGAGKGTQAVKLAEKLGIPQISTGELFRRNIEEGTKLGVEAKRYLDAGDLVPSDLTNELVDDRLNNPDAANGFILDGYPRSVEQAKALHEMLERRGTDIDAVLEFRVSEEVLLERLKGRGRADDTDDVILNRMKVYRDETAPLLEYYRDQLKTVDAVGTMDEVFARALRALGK
Phosphoglycerate kinase, Pgk, sequence (P9WID1 whole entry): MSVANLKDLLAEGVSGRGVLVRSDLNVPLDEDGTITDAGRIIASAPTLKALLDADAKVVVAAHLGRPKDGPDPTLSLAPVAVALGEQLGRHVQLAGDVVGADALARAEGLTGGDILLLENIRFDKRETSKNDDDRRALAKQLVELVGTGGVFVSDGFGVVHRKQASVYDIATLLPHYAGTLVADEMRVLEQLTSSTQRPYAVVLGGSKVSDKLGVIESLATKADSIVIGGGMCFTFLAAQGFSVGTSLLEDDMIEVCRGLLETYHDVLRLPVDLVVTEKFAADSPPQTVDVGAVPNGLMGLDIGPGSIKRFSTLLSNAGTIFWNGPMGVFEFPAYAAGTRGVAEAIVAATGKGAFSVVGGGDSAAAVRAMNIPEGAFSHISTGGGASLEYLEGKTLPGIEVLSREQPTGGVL

Turning to `Nc1ncnc2c1ncn2[C@@H]1O[C@H](COP(=O)(O)OP(=O)(O)OP(O)(O)=S)[C@@H](O)[C@H]1O` [ATPγS, adenosine 5′-[γ-thio]triphosphate tetralithium], the Fold change in assay [1] is recorded as 6.56 fold; at Universal stress protein, 4.75 fold; in assay [2] it was 6.80 fold; in assay [3] it was 3.98 fold; on Adenylate kinase, Adk, 2.12 fold.
